Results from paper PMC5218480 (PLoS ONE, 2017).

Tested on: MV-4-11 cells
Assay: Gene expression microarray analysis (Affymetrix PrimeView) and GSEA
Assay type: cell-based, human
Parameters: RFU PODN (11730768_x_at) / Fold change /veh PODN (11730768_x_at) / RFU LINC00158 (11744669_a_at) / Fold change /veh LINC00158 (11744669_a_at) / RFU DUSP10 (11751237_a_at) / Fold change /veh DUSP10 (11751237_a_at) / RFU ID3 (11757404_x_at) / Fold change /veh ID3 (11757404_x_at) / RFU PLEKHG5 (11737974_s_at) / Fold change /veh PLEKHG5 (11737974_s_at) / RFU LRRC4B (11730491_at) / Fold change /veh LRRC4B (11730491_at) / RFU GIMAP4 (11747438_a_at) / Fold change /veh GIMAP4 (11747438_a_at) / RFU KRT8 (11758183_x_at) / Fold change /veh KRT8 (11758183_x_at) / RFU CNN1 (11734310_a_at) / Fold change /veh CNN1 (11734310_a_at) / RFU VPS37D (11726825_at) / Fold change /veh VPS37D (11726825_at) / RFU C10orf10 (11716522_x_at) / Fold change /veh C10orf10 (11716522_x_at) / RFU KIR2DL2 /// KIR2DL4 /// KIR2DL5A /// KIR2DL5B /// KIR2DS1 /// KIR2DS2 /// KIR2DS3 /// KIR2DS4 /// KIR3DL3 /// KIR3DL3 /// KIR3DS1 (11738374_at) / Fold change /veh KIR2DL2 /// KIR2DL4 /// KIR2DL5A /// KIR2DL5B /// KIR2DS1 /// KIR2DS2 /// KIR2DS3 /// KIR2DS4 /// KIR3DL3 /// KIR3DL3 /// KIR3DS1 (11738374_at) / RFU C1QL1 (11718748_at) / Fold change /veh C1QL1 (11718748_at) / RFU TMPRSS4 (11747572_a_at) / Fold change /veh TMPRSS4 (11747572_a_at) / RFU HAMP (11756126_x_at) / Fold change /veh HAMP (11756126_x_at) / RFU RNFT2 (11725882_a_at) / Fold change /veh RNFT2 (11725882_a_at) / RFU NR4A2 (11747474_a_at) / Fold change /veh NR4A2 (11747474_a_at) / RFU ABCC12 (11746883_a_at) / Fold change /veh ABCC12 (11746883_a_at) / RFU TMEM136 (11760407_x_at) / Fold change /veh TMEM136 (11760407_x_at) / RFU CLDN22 /// WWC2 (11732394_at) / Fold change /veh CLDN22 /// WWC2 (11732394_at) / RFU HLA-DPB1 (11760878_x_at) / Fold change /veh HLA-DPB1 (11760878_x_at) / RFU SPINT1 (11716480_a_at) / Fold change /veh SPINT1 (11716480_a_at) / RFU GAP43 (11754022_s_at) / Fold change /veh GAP43 (11754022_s_at) / RFU A4GNT (11735810_at) / Fold change /veh A4GNT (11735810_at) / RFU PRB3 (11715151_x_at) / Fold change /veh PRB3 (11715151_x_at) / RFU TUBB4B (11761932_at) / Fold change /veh TUBB4B (11761932_at) / RFU CAPN14 (11732068_a_at) / Fold change /veh CAPN14 (11732068_a_at) / RFU TMCC2 (11721928_a_at) / Fold change /veh TMCC2 (11721928_a_at) / RFU IRGQ (11745062_a_at) / Fold change /veh IRGQ (11745062_a_at) / RFU FAM174B (11720279_a_at) / Fold change /veh FAM174B (11720279_a_at) / RFU TMPRSS4 (11748680_a_at) / Fold change /veh TMPRSS4 (11748680_a_at) / RFU FAM212B (11763350_a_at) / Fold change /veh FAM212B (11763350_a_at) / RFU PLEKHG5 (11743358_a_at) / Fold change /veh PLEKHG5 (11743358_a_at) / RFU ZSCAN30 (11745921_a_at) / Fold change /veh ZSCAN30 (11745921_a_at) / RFU CMKLR1 (11741424_a_at) / Fold change /veh CMKLR1 (11741424_a_at) / RFU LOC101060620 /// MAPK8IP1 (11723275_at) / Fold change /veh LOC101060620 /// MAPK8IP1 (11723275_at) / RFU SPTSSB (11747773_x_at) / Fold change /veh SPTSSB (11747773_x_at) / RFU PRSS12 (11739890_at) / Fold change /veh PRSS12 (11739890_at) / RFU BIN1 (11741810_x_at) / Fold change /veh BIN1 (11741810_x_at) / RFU WNT11 (11732464_a_at) / Fold change /veh WNT11 (11732464_a_at) / RFU C10orf10 (11716521_a_at) / Fold change /veh C10orf10 (11716521_a_at) / RFU C5orf56 (11738089_at) / Fold change /veh C5orf56 (11738089_at) / RFU CYB561 (11721691_x_at) / Fold change /veh CYB561 (11721691_x_at) / RFU ANKRD19P (11752326_a_at) / Fold change /veh ANKRD19P (11752326_a_at) / RFU OR2T12 /// OR2T33 /// OR2T8 (11738714_s_at) / Fold change /veh OR2T12 /// OR2T33 /// OR2T8 (11738714_s_at) / RFU VCAN (11748164_a_at) / Fold change /veh VCAN (11748164_a_at) / RFU JSRP1 (11732532_at) / Fold change /veh JSRP1 (11732532_at) / RFU KRTAP10-11 (11738290_x_at) / Fold change /veh KRTAP10-11 (11738290_x_at) / RFU MYO3A (11730013_a_at) / Fold change /veh MYO3A (11730013_a_at) / RFU EBF3 (11725865_a_at) / Fold change /veh EBF3 (11725865_a_at) / RFU CAMK2N1 (11719241_x_at) / Fold change /veh CAMK2N1 (11719241_x_at) / RFU C5orf56 (11738088_a_at) / Fold change /veh C5orf56 (11738088_a_at) / RFU OLFML3 (11715873_a_at) / Fold change /veh OLFML3 (11715873_a_at) / RFU LOC100653217 /// NTM (11731650_a_at) / Fold change /veh LOC100653217 /// NTM (11731650_a_at) / RFU MAPK11 (11762145_a_at) / Fold change /veh MAPK11 (11762145_a_at) / RFU FIZ1 (11724087_x_at) / Fold change /veh FIZ1 (11724087_x_at) / RFU OASL (11726364_x_at) / Fold change /veh OASL (11726364_x_at) / RFU SOX15 (11748057_x_at) / Fold change /veh SOX15 (11748057_x_at) / RFU CD79A (11719716_a_at) / Fold change /veh CD79A (11719716_a_at) / RFU HIST1H1D (11736915_at) / Fold change /veh HIST1H1D (11736915_at) / RFU CASKIN2 (11723855_a_at) / Fold change /veh CASKIN2 (11723855_a_at) / RFU LOC730098 (11760151_x_at) / Fold change /veh LOC730098 (11760151_x_at) / RFU OR4N2 (11742367_at) / Fold change /veh OR4N2 (11742367_at) / RFU PRRT2 (11749266_a_at) / Fold change /veh PRRT2 (11749266_a_at) / RFU SNX32 (11753110_a_at) / Fold change /veh SNX32 (11753110_a_at) / RFU CDHR5 (11726645_a_at) / Fold change /veh CDHR5 (11726645_a_at) / RFU RCAN1 (11760418_a_at) / Fold change /veh RCAN1 (11760418_a_at) / RFU FAM167A (11723789_a_at) / Fold change /veh FAM167A (11723789_a_at) / RFU FAM26E (11764081_at) / Fold change /veh FAM26E (11764081_at) / RFU ISYNA1 (11749810_s_at) / Fold change /veh ISYNA1 (11749810_s_at) / RFU ACY1 (11761880_at) / Fold change /veh ACY1 (11761880_at) / RFU 11764098_at / Fold change /veh 11764098_at / RFU SAMD14 (11745864_x_at) / Fold change /veh SAMD14 (11745864_x_at) / RFU NPB (11741838_a_at) / Fold change /veh NPB (11741838_a_at) / RFU TMPRSS6 (11731388_a_at) / Fold change /veh TMPRSS6 (11731388_a_at) / RFU KRTAP10-2 (11738614_at) / Fold change /veh KRTAP10-2 (11738614_at) / RFU ARHGAP8 /// PRR5-ARHGAP8 (11727945_x_at) / Fold change /veh ARHGAP8 /// PRR5-ARHGAP8 (11727945_x_at) / RFU KRTAP5-7 /// NADSYN1 (11734609_at) / Fold change /veh KRTAP5-7 /// NADSYN1 (11734609_at) / RFU RASL12 (11751679_a_at) / Fold change /veh RASL12 (11751679_a_at) / RFU CDKN2B (11736163_a_at) / Fold change /veh CDKN2B (11736163_a_at) / RFU PRF1 (11729649_at) / Fold change /veh PRF1 (11729649_at) / RFU, ZNF638 /// ZNF638-IT1 / Fold change vs veh, ZNF638 /// ZNF638-IT1 / RFU, PANK3 / Fold change vs veh, PANK3 / RFU, SH3YL1 / Fold change vs veh, SH3YL1 / RFU, ZEB2 / Fold change vs veh, ZEB2 / RFU, NRIP1 / Fold change vs veh, NRIP1 / RFU, PTTG1IP / Fold change vs veh, PTTG1IP / RFU, CAPN2 / Fold change vs veh, CAPN2 / RFU, MED14 / Fold change vs veh, MED14 / RFU, SNORA58 / Fold change vs veh, SNORA58 / RFU, C1orf63 / Fold change vs veh, C1orf63 / RFU, LRRFIP1 / Fold change vs veh, LRRFIP1 / RFU, NDUFAF7 / Fold change vs veh, NDUFAF7 / RFU, SLC12A2 / Fold change vs veh, SLC12A2 / RFU, IBTK / Fold change vs veh, IBTK / RFU, ESF1 / Fold change vs veh, ESF1 / Fold change vs veh, TMEM50B / RFU, TAOK1 / Fold change vs veh, TAOK1 / RFU, ACBD3 / Fold change vs veh, ACBD3 / RFU, TMA16 / Fold change vs veh, TMA16 / RFU, RWDD3 / Fold change vs veh, RWDD3 / RFU, BCAT1 / Fold change vs veh, BCAT1 / RFU, EDEM3 / Fold change vs veh, EDEM3 / RFU, TMEM33 / Fold change vs veh, TMEM33 / RFU, WDR75 / Fold change vs veh, WDR75 / RFU, AHCTF1 / Fold change vs veh, AHCTF1 / RFU, TFRC / Fold change vs veh, TFRC / RFU, ZDHHC17 / Fold change vs veh, ZDHHC17 / RFU, NOM1 / Fold change vs veh, NOM1 / RFU, ARL8B / Fold change vs veh, ARL8B / RFU, ZBTB11 / Fold change vs veh, ZBTB11 / RFU, TAMM41 / Fold change vs veh, TAMM41 / RFU, KIAA1704 /// LOC100996395 / Fold change vs veh, KIAA1704 /// LOC100996395 / RFU, ING1 / Fold change vs veh, ING1 / RFU, TRMT61B / Fold change vs veh, TRMT61B / RFU, FUBP3 / Fold change vs veh, FUBP3 / RFU, TP53 / Fold change vs veh, TP53 / RFU, TNKS2 / Fold change vs veh, TNKS2 / RFU, ZFP14 / Fold change vs veh, ZFP14 / RFU, ACTR2 / Fold change vs veh, ACTR2 / RFU, PPP3R1 / Fold change vs veh, PPP3R1 / RFU, PIK3R1 / Fold change vs veh, PIK3R1 / RFU, HNRNPA1 / Fold change vs veh, HNRNPA1 / RFU, RNF170 / Fold change vs veh, RNF170 / RFU, ZNF28 / Fold change vs veh, ZNF28 / RFU, RNGTT / Fold change vs veh, RNGTT / RFU, OGT / Fold change vs veh, OGT / RFU, BRD1 / Fold change vs veh, BRD1 / RFU, MARS / Fold change vs veh, MARS / RFU, ZNF655 / Fold change vs veh, ZNF655 / RFU, FAHD1 / Fold change vs veh, FAHD1 / RFU, BDP1 / Fold change vs veh, BDP1 / RFU, LRRCC1 / Fold change vs veh, LRRCC1 / RFU, ARID1A / Fold change vs veh, ARID1A / RFU, ZNF146 / Fold change vs veh, ZNF146 / RFU, ZNF330 / Fold change vs veh, ZNF330 / RFU, GPN3 / Fold change vs veh, GPN3 / RFU, C9orf123 / Fold change vs veh, C9orf123 / RFU, N4BP2L2 / Fold change vs veh, N4BP2L2 / RFU, ARFIP1 / Fold change vs veh, ARFIP1 / RFU, FAM179B / Fold change vs veh, FAM179B / RFU, BCL10 / Fold change vs veh, BCL10 / RFU, UHRF1BP1L / Fold change vs veh, UHRF1BP1L / RFU, BET1 / Fold change vs veh, BET1 / RFU, CNOT2 / Fold change vs veh, CNOT2 / RFU, ZNF268 / Fold change vs veh, ZNF268 / Fold change vs veh, ZNF507 / RFU, DGCR2 / Fold change vs veh, DGCR2 / RFU, WDSUB1 / Fold change vs veh, WDSUB1 / Fold change vs veh, HSP90B1 /// MIR3652 / RFU, ADSS / Fold change vs veh, ADSS / RFU, GK / Fold change vs veh, GK / RFU, ZNF148 / Fold change vs veh, ZNF148 / RFU, TAF9 / Fold change vs veh, TAF9 / RFU, SLC1A5 / Fold change vs veh, SLC1A5 / RFU, SLMO2 / Fold change vs veh, SLMO2 / RFU, ABCC4 / Fold change vs veh, ABCC4 / RFU, LOC101060439 /// RAP1B / Fold change vs veh, LOC101060439 /// RAP1B / RFU, RFX7 / Fold change vs veh, RFX7 / RFU, GTPBP10 / Fold change vs veh, GTPBP10 / RFU, CNEP1R1 / Fold change vs veh, CNEP1R1 / RFU, BIVM-ERCC5 /// ERCC5 / Fold change vs veh, BIVM-ERCC5 /// ERCC5 / RFU, ILF3 / Fold change vs veh, ILF3 / RFU 11762660_at / Fold change /veh 11762660_at / RFU VCAN (11757783_s_at) / Fold change /veh VCAN (11757783_s_at) / RFU DDX43 (11728927_at) / Fold change /veh DDX43 (11728927_at) / RFU KRT8 (11758188_x_at) / Fold change /veh KRT8 (11758188_x_at) / RFU NKD1 (11759106_at) / Fold change /veh NKD1 (11759106_at) / RFU SRD5A1 (11742802_a_at) / Fold change /veh SRD5A1 (11742802_a_at) / RFU TPSAB1 /// TPSB2 (11721975_s_at) / Fold change /veh TPSAB1 /// TPSB2 (11721975_s_at) / RFU GSTM3 (11746129_a_at) / Fold change /veh GSTM3 (11746129_a_at) / RFU IL23R (11737362_x_at) / Fold change /veh IL23R (11737362_x_at) / RFU TMEM51 (11727254_a_at) / Fold change /veh TMEM51 (11727254_a_at) / RFU PIWIL2 (11732686_x_at) / Fold change /veh PIWIL2 (11732686_x_at) / RFU ORM1 (11744905_x_at) / Fold change /veh ORM1 (11744905_x_at) / RFU CCDC152 (11743942_at) / Fold change /veh CCDC152 (11743942_at) / RFU ECM1 (11717891_a_at) / Fold change /veh ECM1 (11717891_a_at) / RFU IL23R (11748794_a_at) / Fold change /veh IL23R (11748794_a_at) / RFU TNFAIP8L3 (11732012_x_at) / Fold change /veh TNFAIP8L3 (11732012_x_at) / RFU MBOAT4 (11741988_at) / Fold change /veh MBOAT4 (11741988_at) / RFU 11764193_at / Fold change /veh 11764193_at / RFU TMEM53 (11763286_at) / Fold change /veh TMEM53 (11763286_at) / RFU MAGEB2 (11727129_at) / Fold change /veh MAGEB2 (11727129_at) / RFU TMEM200A (11744735_a_at) / Fold change /veh TMEM200A (11744735_a_at) / RFU CCDC152 (11751479_a_at) / Fold change /veh CCDC152 (11751479_a_at) / RFU FAM211A (11726209_a_at) / Fold change /veh FAM211A (11726209_a_at) / RFU RGS16 (11746705_a_at) / Fold change /veh RGS16 (11746705_a_at) / RFU VCAN (11755009_s_at) / Fold change /veh VCAN (11755009_s_at) / RFU RHOB (11743442_s_at) / Fold change /veh RHOB (11743442_s_at) / RFU RGS16 (11720943_a_at) / Fold change /veh RGS16 (11720943_a_at) / RFU RGS16 (11720944_at) / Fold change /veh RGS16 (11720944_at) / RFU, VPS4B / Fold change vs veh, VPS4B / RFU, CREB1 / Fold change vs veh, CREB1 / RFU, DNAJC13 / Fold change vs veh, DNAJC13 / RFU, GNAQ / Fold change vs veh, GNAQ / RFU, CDK5R1 / Fold change vs veh, CDK5R1 / RFU, ZRANB3 / Fold change vs veh, ZRANB3 / RFU, CUL4A / Fold change vs veh, CUL4A / RFU, CCNY / Fold change vs veh, CCNY / RFU, UFL1 / Fold change vs veh, UFL1 / RFU, COG3 / Fold change vs veh, COG3 / RFU, DIAPH2 / Fold change vs veh, DIAPH2 / RFU, SKA2 / Fold change vs veh, SKA2 / RFU, AFF3 / Fold change vs veh, AFF3 / RFU, LMF1 / Fold change vs veh, LMF1 / RFU, IPO11 / Fold change vs veh, IPO11 / RFU, DFFB / Fold change vs veh, DFFB / RFU, FOXP1 / Fold change vs veh, FOXP1 / RFU, CARD8 / Fold change vs veh, CARD8 / RFU, STRN3 / Fold change vs veh, STRN3 / RFU, ADK / Fold change vs veh, ADK / RFU, RASSF2 / Fold change vs veh, RASSF2 / RFU, WIPF1 / Fold change vs veh, WIPF1 / RFU, LARP1B / Fold change vs veh, LARP1B / RFU, RASA1 / Fold change vs veh, RASA1 / RFU, RB1 / Fold change vs veh, RB1 / RFU, PPFIA1 / Fold change vs veh, PPFIA1 / RFU, MAT2A / Fold change vs veh, MAT2A / RFU, CCT5 / Fold change vs veh, CCT5 / RFU, WDR92 / Fold change vs veh, WDR92 / RFU, CUX1 / Fold change vs veh, CUX1 / RFU, TTC7A / Fold change vs veh, TTC7A / RFU, TMEM135 / Fold change vs veh, TMEM135 / RFU, DEPTOR / Fold change vs veh, DEPTOR / RFU, CPM / Fold change vs veh, CPM / RFU, DNAJB6 / Fold change vs veh, DNAJB6 / RFU, CACNA2D3 / Fold change vs veh, CACNA2D3 / RFU, DTX4 / Fold change vs veh, DTX4 / RFU, TFCP2 / Fold change vs veh, TFCP2 / RFU, GMCL1 /// GMCL1P1 / Fold change vs veh, GMCL1 /// GMCL1P1 / RFU, AEBP2 / Fold change vs veh, AEBP2 / RFU, SNHG1 /// SNORD22 /// SNORD25 /// SNORD26 /// SNORD27 /// SNORD28 /// SNORD29 /// SNORD31 / Fold change vs veh, SNHG1 /// SNORD22 /// SNORD25 /// SNORD26 /// SNORD27 /// SNORD28 /// SNORD29 /// SNORD31 / Fold change (Aza/veh), C12orf56 (ProbeSet 11735607_a_at) / Fold change (ACY-1035/veh), C12orf56 (ProbeSet 11735607_a_at) / Fold change (Aza/veh), FGFR1OP (ProbeSet 11751329_s_at) / Fold change (ACY-1035/veh), FGFR1OP (ProbeSet 11751329_s_at) / Fold change (Aza/veh), VPS36 (ProbeSet 11739960_a_at) / Fold change (ACY-1035/veh), VPS36 (ProbeSet 11739960_a_at) / RFU SYPL1 (11715823_x_at) / Fold change /veh SYPL1 (11715823_x_at) / RFU IGFBP7 (11715501_s_at) / Fold change /veh IGFBP7 (11715501_s_at) / RFU REEP3 (11722064_at) / Fold change /veh REEP3 (11722064_at) / RFU IGLL1 (11728026_x_at) / Fold change /veh IGLL1 (11728026_x_at): dose or concentration left out as unconfirmed
Conditions: ProbeSet 11723475_a_at; LIST B

Nc1ncn([C@@H]2O[C@H](CO)[C@@H](O)[C@H]2O)c(=O)n1 [azacitidine]
RFU, TRMT61B: 139.59 RFU
